According to publication PMC9499506, “TNF-α and IL-1β Modulate Blood-Brain Barrier Permeability and Decrease Amyloid-β Peptide Efflux in a Human Blood-Brain Barrier Model” (International Journal of Molecular Sciences, 2022):

Columns and labels:
BLECs [1] = experiment: Immunostaining of tight junction proteins in BLECs (localization, area fraction staining); type: cell-based, human; settings: 10 ng·mL^−1, 24 h; for BLEC morphology and TJ protein localization: immunofluorescence of ZO-1, occludin, claudin-3, claudin-5
Description: After 24 h of treatment with or without proinflammatory cytokines, BLECs were fixed and permeabilized, as described in Table 1. Then, a blocking step was performed with Sea Block Blocking Buffer (#37527 from Thermofisher, Rockford, IL, USA) for 30 min. BLECs were incubated for 1 h with the primary antibody in phosphate buffered saline, calcium-magnesium-free (PBS-CMF; 0.2 g·L^−1 KH2PO4, 8.0 g·L^−1 NaCl, 2.87 g·L^−1 Na2HPO4–12H2O, and 0.2 g·L^−1 KCl) with 2% (v/v) normal goat serum (NGS) at room temperature (RT) against targeted proteins, as described in Table 1.
After three washes with PBS-CMF supplemented with 2% NGS, BLECs were incubated with secondary polyclonal antibody (goat anti-rabbit Alexa 568, A11036, Molecular Probes, Eugene, OR, USA) diluted 1:500 in PBS-CMF supplemented with 2% NGS in the dark for 30 min at RT. Then, ProLong™ Diamond Antifade Mountant with DAPI (#P36962, Invitrogen) was used for nuclei staining and mounting. The stained slides were conserved in the fridge. The staining images were taken using a Leica microscope (DMRD; Leica Microsystems, Wetzlar, Germany) and processed using ImageJ software.
Claudin-3 and claudin-5 area fraction staining were subsequently quantified within the BLECs using ImageJ software. Staining images from the same experiment were taken with the same threshold according to the staining, and could thus be compared with each other. Due to the absence of BLEC delineation, the total fraction area staining for each image was thus quantified and normalized by the number of nuclei. Studies were performed with at least three independent experiments and at least three randomized staining images per experiment containing around 50 BLECs each.

BLECs [2] = experiment: Western immunoblotting of proinflammatory markers (ICAM-1, VCAM-1, NLRP3) in BLECs; type: cell-based, human; settings: for protein levels of ICAM-1, VCAM-1 and NLRP3 versus untreated BLECs: 10 ng·mL^−1, 24 h
Description: Next, as the inflammatory response of endothelial cells is largely dependent on appropriate upregulation of adhesion molecules, such as intercellular adhesion molecule-1 (ICAM-1) and vascular cell adhesion molecule-1 (VCAM-1), and the inflammasome molecule NOD-like receptor family, pyrin domain containing 3 (NLRP3), we evaluated, by Western immunoblotting, the ability of BLECs to respond to these pro-inflammatory stimuli.
Each condition was studied in triplicate.
After 24 h of treatments with or without proinflammatory cytokines, BLECs were washed twice with cold RH buffer and scraped with 70 μL of RIPA 1X lysis buffer (10 mM Tris-Cl (pH 8.0), 1 mM EDTA, 0.5 mM EGTA, 1% Triton X-100, 0.1% sodium deoxycholate, 0.1% SDS, 140 mM NaCl) (Merck Millipore, Burlington, MA, USA) or UT4 lysis buffer (7M Urea, 2M Thiourea, 4% CHAPS), both supplemented with a cocktail of phosphatase and protease inhibitors (1% protease inhibitors cocktail #P8340; 1% phosphatase inhibitors cocktail 1 P2850; 1% phosphatase inhibitors cocktail 2 #P5726; 1% protease inhibitors cocktail #P8340) purchased from Sigma-Aldrich (Lyon, France). Then, a centrifugation at 10,000 rpm for 10 min at 4 °C was achieved to save the supernatant of the lysate. This was later sonicated two times for 5 s on ice. The concentration of the protein lysate was quantified using the Bradford method (#5000006; rad, Munich, Germany). The protein samples were then stored at −20 °C.
20 μg of total protein was mixed with Laemmli 4X (#1610747; Biorad, Munich, Germany) supplemented with β-mercaptoethanol (Sigma-Aldrich, Germany). Depending on the protein target, details of the denaturation and reduction steps of the protein extract are described in Table 3. Then, the protein mixes were electrophoresed using Criterion™ TGX™ (Tris-Glycine eXtended) precast gels (Biorad, Munich, Germany) and subsequently electrotransferred to nitro-cellulose membranes (GE Healthcare, Munich, Germany). Once the previous step was completed, Tris-buffered saline 0.1% Tween 20 (TBST; 20 mM Tris-HCl, pH 8.0, 500 mM NaCl, 0.1% Tween 20) supplemented with 5% skimmed milk was added on membrane to block nonspecific binding sites for 1 h under agitation at RT. Membranes were incubated in the appropriate primary antibodies (as described in Table 3) and incubated at 4 °C overnight, except β-actin (20 min at RT).
The following morning, the membranes were rinsed with TBST three times for 5 min each under agitation, and then incubated with the horseradish peroxidase-conjugated secondary antibody anti-rabbit (1:8000, Dako/Agilent Technologies, Inc., Santa Clara, CA, USA) or secondary antibody anti-mouse (1:5000, Dako/Agilent Technologies, Inc., Santa Clara, CA, USA) for 1 h at RT. […] Quantification of the relative densities of bands was performed with TotalLab TL 100 1D Gel Analysis software (Nonlinear Dynamics, Newcastle, UK). The protein expression normalization was conducted with anti-β-actin. Studies were performed with at least three independent experiments, with at least two Western immunoblottings per experiment.

[3] = immunofluorescence, ImageJ, normalized by number of nuclei
[4] = both cytokines 10 ng·mL^−1, 24 h, normalized to β-actin

With interleukin-1β [IL-1β] the “BLEC morphology and TJ protein localization” value (BLECs [1]) was “did not cause changes in BLEC morphology and TJ protein localization” and the “protein levels of ICAM-1, VCAM-1 and NLRP3 versus untreated BLECs” value (BLECs [2]) was “significantly higher”.
With tumor necrosis factor-α [TNF-α] the “BLEC morphology and TJ protein localization” value (BLECs [1]) was “induces a change in BLEC morphology and an increase of claudin-3 and claudin-5 cytoplasmic staining”, the “increase of claudin-5 area fraction staining compared to IL-1β treatment” value (BLECs [1]; [3]) was 162.1% and the “increase of claudin-5 area fraction staining compared to control condition” value (BLECs [1]; [3]) was 161.8%. The “claudin-3 area fraction staining, increase compared to IL-1β treatment” value (BLECs [1]; immunofluorescence, ImageJ, normalized by number of nuclei, printed as 'at') was 129.8%, the “protein levels of ICAM-1, VCAM-1 and NLRP3 versus untreated BLECs” value (BLECs [2]) was “significantly higher” and the “ICAM-1 protein level higher after TNF-α compared to IL-1β” value (BLECs [2]; [4]) was 22.2%. The “NLRP3 protein level higher after TNF-α compared to IL-1β” value (BLECs [2]; [4]) was 478.4% and the “VCAM-1 protein level higher after TNF-α compared to IL-1β” value (BLECs [2]; [4]) was 230.6%.
